This is an account of results in ChEMBL document CHEMBL5465560, “Selectivity Literature for EUbOPEN Chemogenomic Library” (2024).

The target in test [1] is Serine/threonine-protein kinase SIK3 (Homo sapiens) (UniProt Q9Y2K2). Briefly: Selectivity interaction (Ambit KINOMEscan and KiNATiv profiling in Jurkat cells) EUB0000090b SIK3. In kind it is cell-based. To be noted: at 1 µM.
In test [2] the target is T1, Serine/threonine-protein kinase DCLK2 (Homo sapiens) (UniProt Q8N568).
T1 sequence (whole entry): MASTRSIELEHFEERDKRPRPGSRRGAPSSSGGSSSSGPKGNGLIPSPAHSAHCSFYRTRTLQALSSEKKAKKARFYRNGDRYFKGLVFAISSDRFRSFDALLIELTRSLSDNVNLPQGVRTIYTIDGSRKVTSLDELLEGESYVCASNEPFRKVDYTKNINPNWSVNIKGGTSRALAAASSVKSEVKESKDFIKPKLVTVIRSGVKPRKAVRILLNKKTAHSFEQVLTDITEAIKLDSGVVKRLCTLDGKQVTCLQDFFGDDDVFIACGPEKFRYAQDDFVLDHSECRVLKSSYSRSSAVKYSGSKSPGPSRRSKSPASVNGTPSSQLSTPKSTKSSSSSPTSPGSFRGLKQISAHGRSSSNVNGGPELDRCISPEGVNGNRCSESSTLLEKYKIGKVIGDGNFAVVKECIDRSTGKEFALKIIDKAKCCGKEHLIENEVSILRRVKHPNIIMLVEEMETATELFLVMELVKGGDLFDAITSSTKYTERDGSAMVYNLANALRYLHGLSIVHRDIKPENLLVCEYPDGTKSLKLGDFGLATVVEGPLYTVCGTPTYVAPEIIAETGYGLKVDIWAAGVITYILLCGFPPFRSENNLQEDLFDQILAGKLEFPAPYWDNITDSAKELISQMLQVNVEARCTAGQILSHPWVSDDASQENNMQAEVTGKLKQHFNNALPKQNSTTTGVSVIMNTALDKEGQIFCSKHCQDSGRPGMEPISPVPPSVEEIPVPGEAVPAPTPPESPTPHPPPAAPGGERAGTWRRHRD
To be noted: at 10 µM.

Test [3] concerns the target Activin receptor type-1-like (Homo sapiens) (UniProt P37023). Briefly: Selectivity interaction (KinomeScan (DiscoverX)) EUB0000655a ACVRL1. To be noted: at 10 µM.
Test [4] has as its target T2, Histone-lysine N-methyltransferase NSD3 (Homo sapiens) (UniProt Q9BZ95).
T2 sequence (whole entry): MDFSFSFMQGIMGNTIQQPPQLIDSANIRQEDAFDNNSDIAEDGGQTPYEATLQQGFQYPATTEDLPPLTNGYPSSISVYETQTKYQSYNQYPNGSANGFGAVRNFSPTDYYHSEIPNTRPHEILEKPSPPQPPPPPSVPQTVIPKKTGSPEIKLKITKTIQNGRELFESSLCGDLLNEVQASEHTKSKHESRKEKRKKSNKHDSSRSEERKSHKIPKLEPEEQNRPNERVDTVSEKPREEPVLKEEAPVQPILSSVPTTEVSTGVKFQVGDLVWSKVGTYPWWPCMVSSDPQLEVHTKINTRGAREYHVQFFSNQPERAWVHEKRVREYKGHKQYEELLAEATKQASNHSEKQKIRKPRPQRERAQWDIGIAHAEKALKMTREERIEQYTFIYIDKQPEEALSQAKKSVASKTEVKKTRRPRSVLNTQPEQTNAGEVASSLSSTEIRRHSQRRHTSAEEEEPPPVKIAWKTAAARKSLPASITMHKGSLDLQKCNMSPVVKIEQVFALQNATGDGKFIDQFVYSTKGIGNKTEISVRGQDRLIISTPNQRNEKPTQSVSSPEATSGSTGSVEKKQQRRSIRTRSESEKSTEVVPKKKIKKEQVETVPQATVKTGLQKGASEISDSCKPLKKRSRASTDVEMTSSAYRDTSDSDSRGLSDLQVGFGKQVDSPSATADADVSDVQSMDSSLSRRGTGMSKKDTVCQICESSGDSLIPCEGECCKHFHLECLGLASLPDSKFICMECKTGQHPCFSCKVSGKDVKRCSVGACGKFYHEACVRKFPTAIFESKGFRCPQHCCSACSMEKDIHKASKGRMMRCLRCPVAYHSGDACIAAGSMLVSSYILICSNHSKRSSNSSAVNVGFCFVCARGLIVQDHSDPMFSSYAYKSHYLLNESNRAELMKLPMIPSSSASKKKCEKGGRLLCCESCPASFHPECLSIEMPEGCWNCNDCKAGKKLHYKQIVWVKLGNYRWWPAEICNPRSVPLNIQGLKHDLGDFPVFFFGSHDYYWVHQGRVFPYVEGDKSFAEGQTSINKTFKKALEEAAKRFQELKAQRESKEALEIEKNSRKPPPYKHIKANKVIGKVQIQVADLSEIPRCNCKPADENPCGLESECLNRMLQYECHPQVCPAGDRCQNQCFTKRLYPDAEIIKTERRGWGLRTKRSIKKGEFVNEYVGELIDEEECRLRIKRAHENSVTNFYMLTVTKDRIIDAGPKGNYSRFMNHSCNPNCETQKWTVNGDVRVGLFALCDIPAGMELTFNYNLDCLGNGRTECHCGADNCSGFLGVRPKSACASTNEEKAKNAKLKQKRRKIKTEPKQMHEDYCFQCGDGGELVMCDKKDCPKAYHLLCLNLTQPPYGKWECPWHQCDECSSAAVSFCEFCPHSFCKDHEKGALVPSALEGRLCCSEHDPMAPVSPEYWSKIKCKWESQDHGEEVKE
The following applies: at 1 µM.

Test [5] has as its target Proto-oncogene tyrosine-protein kinase ROS (Homo sapiens) (UniProt P08922). Briefly: Selectivity interaction (KinomeScan (DiscoverX)) EUB0000607a ROS1. To be noted: at 10 µM.
The target of test [6] is DNA-dependent protein kinase catalytic subunit (Homo sapiens) (UniProt P78527). Briefly: Selectivity interaction (ActivX KiNativ screen (kinase selectivity in THP-1 cell lysates)) EUB0000639a PRKDC. In kind it is subcellular. The following applies: lysate.
Chain of DNA-dependent protein kinase catalytic subunit (Homo sapiens) (P78527 whole entry): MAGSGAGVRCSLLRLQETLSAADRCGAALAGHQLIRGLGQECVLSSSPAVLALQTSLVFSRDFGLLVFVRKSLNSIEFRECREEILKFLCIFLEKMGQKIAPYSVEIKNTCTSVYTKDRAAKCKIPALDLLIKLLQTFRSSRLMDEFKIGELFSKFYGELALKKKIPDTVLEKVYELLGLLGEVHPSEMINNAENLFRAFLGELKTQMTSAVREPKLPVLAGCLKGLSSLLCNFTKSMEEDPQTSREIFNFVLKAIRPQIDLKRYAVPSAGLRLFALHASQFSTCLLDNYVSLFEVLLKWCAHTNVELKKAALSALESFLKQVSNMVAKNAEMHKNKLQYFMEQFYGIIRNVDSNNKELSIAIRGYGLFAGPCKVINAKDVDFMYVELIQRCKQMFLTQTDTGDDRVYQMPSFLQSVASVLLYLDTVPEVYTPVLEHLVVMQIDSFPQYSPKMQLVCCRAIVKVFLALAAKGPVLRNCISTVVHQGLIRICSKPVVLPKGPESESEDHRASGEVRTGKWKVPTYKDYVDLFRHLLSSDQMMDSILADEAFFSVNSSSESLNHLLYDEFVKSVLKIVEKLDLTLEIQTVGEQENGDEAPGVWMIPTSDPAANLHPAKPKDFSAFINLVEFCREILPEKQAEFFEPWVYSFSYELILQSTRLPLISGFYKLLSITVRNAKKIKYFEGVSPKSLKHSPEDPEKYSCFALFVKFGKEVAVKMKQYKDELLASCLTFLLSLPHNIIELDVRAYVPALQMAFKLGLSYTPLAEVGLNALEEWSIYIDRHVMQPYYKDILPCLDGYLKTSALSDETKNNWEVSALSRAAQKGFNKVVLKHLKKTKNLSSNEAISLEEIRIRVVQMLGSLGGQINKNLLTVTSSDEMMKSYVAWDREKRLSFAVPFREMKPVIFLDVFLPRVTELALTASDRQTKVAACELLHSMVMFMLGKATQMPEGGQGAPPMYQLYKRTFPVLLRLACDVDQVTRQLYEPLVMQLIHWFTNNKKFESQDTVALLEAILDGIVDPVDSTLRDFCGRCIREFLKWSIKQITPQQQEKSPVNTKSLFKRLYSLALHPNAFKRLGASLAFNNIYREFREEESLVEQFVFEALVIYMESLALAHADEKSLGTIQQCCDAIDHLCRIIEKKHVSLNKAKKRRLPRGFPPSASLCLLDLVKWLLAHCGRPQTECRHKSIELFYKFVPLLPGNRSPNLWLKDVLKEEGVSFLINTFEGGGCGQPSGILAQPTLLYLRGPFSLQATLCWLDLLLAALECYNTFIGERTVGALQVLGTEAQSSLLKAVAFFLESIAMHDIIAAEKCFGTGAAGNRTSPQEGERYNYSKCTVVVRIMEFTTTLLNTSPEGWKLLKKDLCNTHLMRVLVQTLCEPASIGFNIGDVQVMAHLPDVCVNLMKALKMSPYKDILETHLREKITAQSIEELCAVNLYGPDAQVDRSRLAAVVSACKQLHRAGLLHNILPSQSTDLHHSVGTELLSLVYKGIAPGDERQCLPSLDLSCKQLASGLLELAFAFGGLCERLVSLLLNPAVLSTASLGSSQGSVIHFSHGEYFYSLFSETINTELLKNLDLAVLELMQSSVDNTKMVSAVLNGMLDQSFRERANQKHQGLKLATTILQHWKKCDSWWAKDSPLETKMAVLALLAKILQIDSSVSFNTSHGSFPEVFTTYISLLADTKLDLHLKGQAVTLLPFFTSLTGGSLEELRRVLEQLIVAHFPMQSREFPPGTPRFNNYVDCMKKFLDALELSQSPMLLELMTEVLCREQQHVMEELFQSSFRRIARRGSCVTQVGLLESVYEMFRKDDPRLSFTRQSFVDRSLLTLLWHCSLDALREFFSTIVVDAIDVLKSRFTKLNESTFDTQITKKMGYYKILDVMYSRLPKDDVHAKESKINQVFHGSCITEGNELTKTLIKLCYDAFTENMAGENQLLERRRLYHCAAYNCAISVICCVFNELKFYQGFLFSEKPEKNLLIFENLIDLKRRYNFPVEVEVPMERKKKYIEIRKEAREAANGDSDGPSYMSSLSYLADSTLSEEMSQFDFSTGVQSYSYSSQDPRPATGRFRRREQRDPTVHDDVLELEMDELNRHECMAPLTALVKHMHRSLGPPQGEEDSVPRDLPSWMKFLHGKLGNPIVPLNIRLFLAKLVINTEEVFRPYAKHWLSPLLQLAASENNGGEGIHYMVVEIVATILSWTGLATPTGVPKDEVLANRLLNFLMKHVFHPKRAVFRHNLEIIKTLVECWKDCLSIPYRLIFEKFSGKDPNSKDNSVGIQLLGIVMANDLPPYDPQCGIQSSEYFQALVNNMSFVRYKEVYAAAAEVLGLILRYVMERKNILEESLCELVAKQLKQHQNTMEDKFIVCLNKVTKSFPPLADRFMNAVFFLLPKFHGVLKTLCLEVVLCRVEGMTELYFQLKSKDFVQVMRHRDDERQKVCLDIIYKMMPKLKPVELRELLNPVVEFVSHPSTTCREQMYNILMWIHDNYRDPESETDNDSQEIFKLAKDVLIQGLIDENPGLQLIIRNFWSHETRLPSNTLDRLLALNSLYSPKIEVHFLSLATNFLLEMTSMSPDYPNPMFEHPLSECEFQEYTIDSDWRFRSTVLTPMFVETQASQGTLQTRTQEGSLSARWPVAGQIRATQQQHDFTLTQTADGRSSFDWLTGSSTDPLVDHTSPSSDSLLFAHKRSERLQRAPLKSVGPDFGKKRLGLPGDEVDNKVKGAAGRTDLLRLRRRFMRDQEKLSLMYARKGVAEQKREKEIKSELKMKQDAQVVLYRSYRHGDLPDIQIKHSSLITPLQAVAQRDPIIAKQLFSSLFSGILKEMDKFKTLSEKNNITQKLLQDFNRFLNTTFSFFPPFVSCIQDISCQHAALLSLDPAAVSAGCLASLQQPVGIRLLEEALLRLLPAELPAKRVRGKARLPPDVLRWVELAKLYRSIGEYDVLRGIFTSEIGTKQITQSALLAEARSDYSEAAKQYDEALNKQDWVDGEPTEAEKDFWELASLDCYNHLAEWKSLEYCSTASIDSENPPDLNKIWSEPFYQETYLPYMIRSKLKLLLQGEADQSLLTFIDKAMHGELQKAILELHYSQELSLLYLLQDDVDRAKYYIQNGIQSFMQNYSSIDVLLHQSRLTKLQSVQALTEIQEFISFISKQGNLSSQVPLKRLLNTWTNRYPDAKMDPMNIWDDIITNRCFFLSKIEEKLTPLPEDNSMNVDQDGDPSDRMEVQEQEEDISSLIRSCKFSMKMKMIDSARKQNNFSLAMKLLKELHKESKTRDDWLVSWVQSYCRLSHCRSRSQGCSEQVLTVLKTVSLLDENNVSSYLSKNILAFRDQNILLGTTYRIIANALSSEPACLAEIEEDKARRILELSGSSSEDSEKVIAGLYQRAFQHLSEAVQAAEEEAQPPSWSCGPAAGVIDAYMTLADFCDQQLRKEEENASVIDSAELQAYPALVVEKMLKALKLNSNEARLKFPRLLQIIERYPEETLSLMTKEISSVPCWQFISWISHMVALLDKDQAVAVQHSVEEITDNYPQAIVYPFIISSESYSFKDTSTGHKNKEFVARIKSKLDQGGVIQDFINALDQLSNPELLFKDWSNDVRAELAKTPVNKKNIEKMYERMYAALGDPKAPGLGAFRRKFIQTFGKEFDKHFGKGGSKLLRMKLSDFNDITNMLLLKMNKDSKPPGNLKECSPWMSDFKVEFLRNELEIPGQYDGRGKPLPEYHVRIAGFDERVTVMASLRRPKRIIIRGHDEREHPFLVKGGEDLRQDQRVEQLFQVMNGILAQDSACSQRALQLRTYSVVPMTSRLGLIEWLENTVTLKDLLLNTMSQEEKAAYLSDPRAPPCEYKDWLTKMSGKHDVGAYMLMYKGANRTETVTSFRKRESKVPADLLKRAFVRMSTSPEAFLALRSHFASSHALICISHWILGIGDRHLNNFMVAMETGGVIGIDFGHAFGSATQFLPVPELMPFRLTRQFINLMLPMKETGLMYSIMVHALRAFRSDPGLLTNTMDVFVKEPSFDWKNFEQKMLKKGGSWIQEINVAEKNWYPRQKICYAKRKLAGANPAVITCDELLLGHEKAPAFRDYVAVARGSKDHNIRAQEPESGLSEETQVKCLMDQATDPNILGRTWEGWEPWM
The target in test [7] is Bone morphogenetic protein receptor type-1A (Homo sapiens, UniProt P36894). Briefly: Selectivity interaction (KinomeScan (DiscoverX)) EUB0000229b BMPR1A. The following applies: at 10 µM.
Chain of Bone morphogenetic protein receptor type-1A (P36894 whole entry): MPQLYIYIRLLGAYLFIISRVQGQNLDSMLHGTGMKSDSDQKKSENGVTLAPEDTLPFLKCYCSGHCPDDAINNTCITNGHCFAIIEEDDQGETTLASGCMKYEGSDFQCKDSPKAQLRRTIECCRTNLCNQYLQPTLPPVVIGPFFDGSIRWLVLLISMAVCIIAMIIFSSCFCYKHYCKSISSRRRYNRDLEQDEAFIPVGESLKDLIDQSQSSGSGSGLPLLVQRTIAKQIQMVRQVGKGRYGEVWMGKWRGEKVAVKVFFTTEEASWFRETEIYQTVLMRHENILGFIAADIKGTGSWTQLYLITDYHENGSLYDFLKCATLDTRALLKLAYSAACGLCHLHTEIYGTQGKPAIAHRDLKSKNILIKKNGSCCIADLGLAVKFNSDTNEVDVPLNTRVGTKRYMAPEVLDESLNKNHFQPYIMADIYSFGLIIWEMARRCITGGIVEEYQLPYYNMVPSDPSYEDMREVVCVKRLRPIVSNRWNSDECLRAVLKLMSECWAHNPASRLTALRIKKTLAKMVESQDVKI
In test [8] the target is Homeodomain-interacting protein kinase 3 (Homo sapiens, UniProt Q9H422). Briefly: Selectivity interaction (KinomeScan (DiscoverX)) EUB0000229b HIPK3. To be noted: at 10 µM.
In test [9] the target is Myosin light chain kinase 2, skeletal/cardiac muscle (Homo sapiens) (UniProt Q9H1R3). Briefly: Selectivity interaction (KinomeScan (DiscoverX)) EUB0000595a MYLK2. To be noted: at 10 µM.
For test [10], the target named is Tyrosine-protein kinase Fes/Fps (Homo sapiens) (UniProt P07332). Briefly: Selectivity interaction (ActivX KiNativ screen (ex vivo kinase selectivity in human PBMCs)) EUB0001619a FES. Format: cell-based. The following applies: PBMC, at 1 µM.
The target in test [11] is Phosphatidylinositol 4-phosphate 3-kinase C2 domain-containing subunit beta (Homo sapiens) (UniProt O00750). Briefly: Selectivity interaction (KinomeScan (DiscoverX)) EUB0000618a PIK3C2B. To be noted: at 10 µM.

Chain of Activin receptor type-1-like (Homo sapiens) (P37023 whole entry): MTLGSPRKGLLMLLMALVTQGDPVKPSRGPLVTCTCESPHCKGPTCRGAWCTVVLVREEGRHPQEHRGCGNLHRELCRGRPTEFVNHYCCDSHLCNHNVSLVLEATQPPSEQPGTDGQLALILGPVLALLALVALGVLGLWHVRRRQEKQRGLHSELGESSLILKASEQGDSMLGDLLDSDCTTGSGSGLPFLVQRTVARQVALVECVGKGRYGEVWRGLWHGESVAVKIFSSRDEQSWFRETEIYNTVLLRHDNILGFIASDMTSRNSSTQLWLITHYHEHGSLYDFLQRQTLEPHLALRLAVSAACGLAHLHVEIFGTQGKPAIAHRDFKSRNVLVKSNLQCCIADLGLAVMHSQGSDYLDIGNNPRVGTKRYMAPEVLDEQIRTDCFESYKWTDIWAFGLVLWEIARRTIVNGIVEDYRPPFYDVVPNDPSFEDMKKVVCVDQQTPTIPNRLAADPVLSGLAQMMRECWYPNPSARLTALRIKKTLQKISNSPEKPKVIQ

Regarding `CN(C)C/C=C/C(=O)Nc1ccc(C(=O)N2CCCC(Nc3ncc(Cl)c(-c4c[nH]c5ccccc45)n3)C2)cc1` (stereo not given), the % of control in test [1] came out at 99%.

`CCN(CC)CCCCNc1ncc2cc(-c3cc(OC)cc(OC)c3)c(NC(=O)NC(C)(C)C)nc2n1`: in [2], the % of control is 100%.

Compound `CN(C)CCOc1ccc(-c2nc(-c3ccncc3)c(-c3ccc4c(c3)CC/C4=N\O)[nH]2)cc1` yielded a % of control in test [3] of 67%.

`CNCCN1CCC(c2cc(CN(C)C(=O)c3cccc(Oc4ccccc4)c3)ccn2)CC1` came in with a % activity in test [4] of more than 90%.

With `CNC(=O)Nc1ccc(-c2nc(N3CC4CCC(C3)O4)c3cnn(C4CCC5(CC4)OCCO5)c3n2)cc1`, the % of control in test [5] was 81%.

For the compound `CC[C@@H]1[C@H](F)C(=O)N[C@@H]1COc1nccc2cc(C(N)=O)c(OC)cc12` [ZIMLOVISERTIB], the % of inhibition in test [6] (at 0.01 µM) was -17.9%; in test [6] (at 0.04 µM) it was -5.4%; in test [6] (at 0.2 µM), 5%; in [6] (at 1 µM), 12.5%; in test [6] (at 5 µM), -1.4%.

For the compound `COc1cc(N(C)c2ccnc3ccc(C(F)(F)F)cc23)cc(OC)c1OC`, the % binding in test [7] was determined as 76%; in test [8] it was 81%.

`COCC(=O)NC/C=C/c1ccc2ncnc(Nc3ccc(Oc4ccc(C)nc4)c(C)c3)c2c1` [CP-724714]: the % of control in test [9] turned out to be 100%.

On to `N#Cc1cccc(-c2c[nH]c3ncnc(N4CCOCC4)c23)c1`, for which, in [10], the % of inhibition worked out at 2%.

`O[C@H]1CC[C@H](Nc2ncc3nc(Nc4c(F)cc(F)cc4F)n([C@H]4CCOC4)c3n2)CC1` returned a % of control in [11] of 97%.
